{
  "source": "patent US8092825B2",
  "about": "“Glycan binding proteins as therapeutic targets for retinal disorders and treatment methods based thereon” (The University of Tennessee Research Foundation, priority 2007, dated 2012)",
  "key": {"[1]": {"system": "photoreceptor OS membrane assembly in RPE-deprived retinas", "experiment": "In vitro assay of photoreceptor outer segment (OS) membrane assembly in RPE-deprived Xenopus laevis tadpole retinas", "format": "cell-based", "conditions": "for ability to promote OS assembly in the presence of the Müller cell inhibitor: with 1×10^−5 M α-AAA, IPTG at 5×10^−5 M; for average OS organizational grade (mean±SEM; grade 4 = 100% organization): 5×10^−3 M sugar, three days in culture", "text": "We have used various oligosaccharides at concentrations ranging over four orders of magnitude to evaluate the ability of these oligosaccharides to support OS membrane assembly in RPE-deprived retina, using a Xenopus laevis system that allows for convenient analysis of OS membrane formation in vitro. In the RPE-deprived cultures, the RPE continues to be present as a cluster of cells at the ora serrata; however throughout the posterior pole and periphery of the retina, the RPE layer has been removed from its normal position adjacent to the photoreceptors.\nIntact retinas were removed from stage 33/34 Xenopus laevis tadpoles and placed into culture in Niu-Twitty medium for three days as described above. Using this paradigm, all OS material is elaborated while in culture. […]"}, "[2]": {"system": "photoreceptor OS membrane assembly in RPE-deprived retinas", "conditions": "previous studies (60, 61); cited from earlier work"}, "[3]": {"system": "xrds38 isoform of Xenopus peripherin2", "experiment": "Antisense oligonucleotide knockdown in isolated Xenopus laevis eye rudiments", "format": "cell-based", "conditions": "steady-state level vs retinas with intact RPE", "text": "We have developed an assay system using intact isolated Xenopus laevis eye rudiments coupled with antisense oligonucleotides that is well suited to evaluating the functional role of specific gene products, e.g., in OS membrane assembly. As an example of the capability of this assay system, we generated a loss-of-function model for peripherin2, a genetically and phenotypically well-characterized gene (76-82). Photoreceptors of Xenopus laevis express three distinct isoforms of the peripherin2 gene; cones express xrds38 exclusively, whereas rods express […] xrds38 (83). For purposes of validation of the antisense assay system, our evaluation was directed to xrds38. Phosphorothioated oligonucleotides (two 20-base antisense oligonucleotides and one 20-base sense oligonucleotide) derived from the 5' end of the coding sequences of the xrds38 isoform of Xenopus peripherin2 were utilized. Additional controls included: retinas with an intact RPE, and retinas devoid of RPE with 5 mM exogenous lactose added to the medium. […] The percentage of retinal cells that had positive uptake of the FITC-conjugated oligonucleotide was determined by comparing the volume of bright to dark areas in optical sections obtained with the confocal microscope. […] The steady-state levels of each protein were compared to the levels detected in control retinas maintained with an intact RPE cell layer."}, "Müller cells": {"system": "Müller cells", "conditions": "1×10^−5 M, RPE-supported retinas; cited from earlier work"}, "[4]": {"system": "putative retinal glycan receptor on Müller cells", "experiment": "Binding of biotinylated-NA3 to embryonic retinas, anti-biotin immunostaining and confocal microscopy", "design": "species or system Xenopus laevis", "conditions": "biotinylated-NA3 alone", "text": "Embryonic Xenopus laevis retinas were exposed to two experimental conditions: (1) biotinylated-NA3; and (2) biotinylated-NA3 with a molar excess of IPTG as a competitive sugar, to eliminate non-specific interactions of NA3 with retinal proteins. After exposure to the sugars followed by immunostaining using a mouse anti-biotin primary antibody and a chicken anti-mouse secondary antibody coupled to Alexa fluor 594 using standard protocols, eyes were bisected and viewed using a confocal microscope.\n2. Localization of the glycan receptor using biotinylated-NA3 probe. RPE-deprived retinas from stage 33/34 Xenopus laevis tadpoles are exposed to Niu-Twitty medium containing 10^−7 M biotinylated-NA3 for 3 hours, followed by fixation in 4% paraformaldehyde. Control retinas are incubated in NA3+10^−5 M IPTG to reveal non-specific binding of the NA3 ligand. Subsequent procedures are identical to those described above for immunohistochemical localization. In this instance, however, the following primary and secondary antibodies are utilized: anti-biotin, mouse IgG (Molecular Probes) as primary antibody; and anti-mouse chicken IgG labeled with Alexa Fluor 488 (Molecular Probes). To confirm the localization to a particular retinal cell type, sections are co-stained with antisera that are cell type-specific (e.g., directed against Müller cell- or photoreceptor-specific gene products)."}},
  "note": "“Also recorded” adds a separate entry of the source.",
  "data": [
    {"molecule": "CC(C)S[C@@H]1O[C@H](CO)[C@H](O)[C@H](O)[C@H]1O", "note": "[IPTG, isopropyl beta-D-thiogalactopyranoside]", "values": [
      {"measurement": "average grade of OS membranes assembled during exposure to the sugar (early part)", "setting": "[1]; 5×10^−5 M IPTG with 3H-leucine for two days", "result": "about 2.88±0.37"},
      {"measurement": "concentration that optimally supports OS assembly (maximum effect)", "setting": "[1]; RPE-deprived retinas", "result": 50, "unit": "µM"},
      {"measurement": "fold lower concentration than lactose for comparable effect on OS assembly", "setting": "[1]; RPE-deprived retinas", "result": 100, "unit": "fold"},
      {"measurement": "average OS grade at maximum response", "setting": "[1]; RPE-deprived retinas, 5×10^−5 M IPTG", "result": "2.61±0.37"},
      {"measurement": "ability to promote OS assembly in the presence of the Müller cell inhibitor", "setting": "[1]; RPE-deprived retinas", "result": "severely diminished"},
      {"measurement": "average grade of OS membranes assembled after removal of the sugar (later stage)", "setting": "[1]; two further days in non-supplemented medium after IPTG", "result": "1.21±0.31"}
    ]},
    {"molecule": "C[C@H](O)[C@@H](O)[C@@H](O)[C@H](O)C=O", "note": "[fucose]", "values": [
      {"measurement": "ability to let OS organize in the absence of the RPE (permissive / non-permissive sugars)", "setting": "[2]", "result": "fail to exert any organizational effect"}
    ]},
    {"molecule": "O=C[C@H](O)[C@@H](O)[C@@H](O)[C@H](O)CO", "note": "[galactose]", "values": [
      {"measurement": "ability to let OS organize in the absence of the RPE (permissive / non-permissive sugars)", "setting": "[2]", "result": "permit OS to organize"}
    ]},
    {"molecule": "OC[C@H]1O[C@@H](O[C@H]2[C@H](O)[C@@H](O)C(O)O[C@@H]2CO)[C@H](O)[C@@H](O)[C@H]1O", "note": "(some centres unmarked) [lactose]", "values": [
      {"measurement": "support of OS assembly in the absence of RPE", "setting": "[1]; 5×10^−3 M (5 mM)", "result": "supports the proper formation of nascent OS; also recorded: OS assembly is supported"},
      {"measurement": "concentration that optimally supports OS assembly (maximum effect)", "setting": "[1]; RPE-deprived retinas", "result": 5000, "unit": "µM"},
      {"measurement": "share of OS membranes highly organized", "setting": "[1]; RPE-deprived retinas, 5×10^−3 M", "result": "50 to 75", "unit": "%"},
      {"measurement": "average OS organizational grade (mean±SEM; grade 4 = 100% organization)", "setting": "[1]; RPE-deprived retinas", "result": "2.50±0.28"},
      {"measurement": "ability to let OS organize in the absence of the RPE (permissive / non-permissive sugars)", "setting": "[2]", "result": "permit OS to organize"},
      {"measurement": "opsin protein level relative to control", "setting": "[3]", "result": "not significantly different from controls"},
      {"measurement": "peripherin2 protein level relative to control", "setting": "[3]", "result": "slightly elevated above control"}
    ]},
    {"molecule": "O=C[C@@H](O)[C@@H](O)[C@H](O)[C@H](O)CO", "note": "[mannose]", "values": [
      {"measurement": "support of OS assembly in the absence of RPE", "setting": "[1]; 5×10^−3 M (5 mM)", "result": "does not favorably affect the folding of OS; also recorded: fails to support the proper assembly of OS"},
      {"measurement": "average OS organizational grade (mean±SEM; grade 4 = 100% organization)", "setting": "[1]; RPE-deprived retinas", "result": "0.52±0.22"},
      {"measurement": "ability to let OS organize in the absence of the RPE (permissive / non-permissive sugars)", "setting": "[2]", "result": "fail to exert any organizational effect"}
    ]},
    {"molecule": "NC(CCCC(=O)O)C(=O)O", "note": "(stereo not drawn) [α-AAA, Alpha-aminoadipic acid]", "values": [
      {"measurement": "effect on Müller cell morphology and protein expression patterns", "setting": "Müller cells", "result": "selective alterations"},
      {"measurement": "effect on ability of photoreceptors to synthesize opsin", "setting": "Müller cells", "result": "no affect"},
      {"measurement": "effect on assembly of nascent OS membranes", "setting": "Müller cells", "result": "interfere with the ability of these cells to properly assembly nascent OS membranes"}
    ]},
    {"molecule": "asialo, galactosylated, biantennary (NA2) oligosaccharide", "values": [
      {"measurement": "concentration that optimally supports OS assembly (maximum effect)", "setting": "[1]; RPE-deprived retinas", "result": 0.005, "unit": "µM"}
    ]},
    {"molecule": "asialo, galactosylated, triantennary (NA3) oligosaccharide", "values": [
      {"measurement": "support of OS assembly in the absence of RPE", "setting": "[1]; 5×10^−10M", "result": "robust support of OS assembly"},
      {"measurement": "concentration that optimally supports OS assembly (maximum effect)", "setting": "[1]; RPE-deprived retinas", "result": 0.0005, "unit": "µM"},
      {"measurement": "binding to photoreceptors", "setting": "[4]", "result": "did not bind to any portion of photoreceptors"}
    ]},
    {"molecule": "PEDF: pigment epithelium derived factor, RPE-secreted protein (protein, UniProt P36955 20-418, looked up) Pigment epithelium-derived …: QNPASPPEEGSPDPDSTGALVEEEDPFFKVPVNKLAAAVSNFGYDLYRVRSSTSPTTNVLLSPLSVATALSALSLGAEQRTESIIHRALYYDLISSPDIHGTYKELLDTVTAPQKNLKSASRIVFEKKLRIKSSFVAPLEKSYGTRPRVLTGNPRLDLQEINNWVQAQMKGKLARSTKEIPDEISILLLGVAHFKGQWVTKFDSRKTSLEDFYLDEERTVRVPMMSDPKAVLRYGLDSDLSCKIAQLPLTGSMSIIFFLPLKVTQNLTLIEESLTSEFIHDIDRELKTVQAVLTVPKLKLSYEGEVTKSLQEMKLQSLFDSPDFSKITGKPIKLTQVEHRAGFEWNEDGAGTTPSPGLQPAHLTFPLDYHLNQPFIFVLRDTDTGALLFIGKILDPRGP", "values": [
      {"measurement": "ability to promote OS assembly in the presence of the Müller cell inhibitor", "setting": "[1]; RPE-deprived retinas", "result": "able to support proper membrane folding"}
    ]}
  ]
}
